Tests used:
Format in all cases: cell-based
Set-up in all cases: key: —: No effect (i.e. no significant difference between control [culture with no peptide] and culture with peptide); *: ~1 log effect (i.e. culture with peptide that's growth was ~1 log less than control); **: 1-2 log effect; ***: 2-4 log effect; ****: >4 log effect; “”: “Immediate effect” (i.e. loss of growth by at least 1 log compared to control immediately on addition of peptide [T = 0]
F. novicida U112 = system: F. novicida U112
F. tularensis LVS = system: F. tularensis LVS
[1] = system: Y. pseudotuberculosis IP32593
S. aureus ATCC29213 = settings: peptide 102 μg/mL, reduction of number of bacteria vs control
B. thailandensis E264 = system: B. thailandensis E264
[2] = system: Y. pseudotuberculosis YPIII
B. cepacia J2540 = system: B. cepacia J2540
[3] = system: B. anthracis Vegetative UM23-Cl2

| Sequence | Effect of peptides after 4 hours incubation with bacteria, F. novicida U112 (F. novicida U112) | Effect of peptides after 4 hours incubation with bacteria, F. tularensis LVS (F. tularensis LVS) | Effect of peptides after 4 hours incubation with bacteria, Y. pseudotuberculosis IP32593 [1] | Effect of peptides after 4 hours incubation with bacteria, S. aureus ATCC29213 (S. aureus ATCC29213) | Effect of peptides after 4 hours incubation with bacteria, B. thailandensis E264 (B. thailandensis E264) | Effect of peptides after 4 hours incubation with bacteria, Y. pseudotuberculosis YPIII [2] | Effect of peptides after 4 hours incubation with bacteria, B. cepacia J2540 (B. cepacia J2540) | Effect of peptides after 4 hours incubation with bacteria, B. anthracis Vegetative UM23-Cl2 [3] |
| --- | --- | --- | --- | --- | --- | --- | --- | --- |
| GIGKFLHSAKKFGKAFVGEIMNS [Magainin II] | — | — | — | **** (>4 log effect) | — |  |  |  |
| LLGDFFRKSKEKIGKEFKRIVQRIKDFLRNLVPRTES [LL-37] | — | — | — | — | — | — | — | — |
